Assay results as given in patent US10189854B2, “Substituted pyrimidine compounds” (Grünenthal GmbH, priority 2014, dated 2019).

Molecular target: human PDE4B1 (Homo sapiens (Human), UniProt Q07343)
Test: cAMP HTRF assay to determine the activity of hPDE4B1
Type: biochemical
Conditions: IC50 inhibition of PDE4B; human recombinant PDE4B1, cAMP HTRF assay
Method: Biological Testing cAMP HTRF® Assay to Determine the Activity of hPDE4B1
The inhibiting effect of the compounds on the enzyme activity of human PDE4B1 was measured by the quantification of 5′-adenosine monophosphate (5′-AMP), which is formed from 3′,5′-cyclic adenosine monophosphate (cAMP). Human recombinant enzyme, expressed in Sf9 cells, and the HTRF (homogeneous time-resolved fluorescence) detection method were used in the assay.
The test compound or water (control) was mixed with the human recombinant PDE4B1 enzyme (4.8 U) in a buffer consisting of 44.4 mM tris-HCl, 5.28 mM MgCl2, 2.64 mM DTT and 0.044% Tween 20 (pH 7.8). After adding the cAMP enzyme substrate (final concentration 40 nM), the mixture was incubated for 30 minutes at room temperature. Then a fluorescence acceptor (Dye2 marked with cAMP), a fluorescence donor (anti-cAMP antibody marked with a europium cryptate) and the non-specific phosphodiesterase inhibitor IBMX (3-isobutyl-1-methylxanthine; final concentration 1 mM) were added. After 60 min the fluorescence transfer, which correlates with the amount of remaining cAMP, was measured with a microplate reader (Rubystar, BMG) at λex=337 nm, λem=620 nm and λem=665 nm. The enzyme activity was calculated from the quotient formed from the measured signal at 665 nm and that at 620 nm. The result was expressed as the percentage inhibition of enzyme activity of the control (without PDE4 inhibitor). The enzyme was omitted for measurement of the basal control.
[N. Saldou et al., Comparison of recombinant human PDE4 isoforms: interaction with substrate and inhibitors, Cell. Signal. Vol. 10, No. 6, 427-440, 1998]. Several compounds according to the invention are tested in the above-described assay.

Chain of human PDE4B1 (Q07343 whole entry): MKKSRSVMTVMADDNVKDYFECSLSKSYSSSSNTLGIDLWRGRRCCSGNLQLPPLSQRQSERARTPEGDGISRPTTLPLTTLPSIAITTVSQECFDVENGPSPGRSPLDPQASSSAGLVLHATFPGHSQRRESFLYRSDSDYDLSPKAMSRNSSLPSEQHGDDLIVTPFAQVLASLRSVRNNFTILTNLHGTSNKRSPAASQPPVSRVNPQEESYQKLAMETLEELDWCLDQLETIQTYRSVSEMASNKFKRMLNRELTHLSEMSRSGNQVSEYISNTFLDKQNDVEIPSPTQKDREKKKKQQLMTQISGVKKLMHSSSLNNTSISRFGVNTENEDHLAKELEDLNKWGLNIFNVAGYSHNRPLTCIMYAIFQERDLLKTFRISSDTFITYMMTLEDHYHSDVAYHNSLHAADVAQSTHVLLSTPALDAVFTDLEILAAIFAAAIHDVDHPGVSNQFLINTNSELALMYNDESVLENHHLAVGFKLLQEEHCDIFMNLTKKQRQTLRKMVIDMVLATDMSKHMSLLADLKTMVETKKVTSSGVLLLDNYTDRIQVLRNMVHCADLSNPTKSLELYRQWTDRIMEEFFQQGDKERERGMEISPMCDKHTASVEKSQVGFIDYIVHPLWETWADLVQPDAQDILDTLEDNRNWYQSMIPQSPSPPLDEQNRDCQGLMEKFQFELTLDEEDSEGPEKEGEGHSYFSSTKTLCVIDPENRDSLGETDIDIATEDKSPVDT

## O=C(c1ccc2c(c1)N(c1ncc(-c3ccccc3F)cn1)CC21CC1)N1CCC1 [Compound 89, (Azetidin-1-yl)-[1-[5-(2-fluorophenyl)-pyrimidin-2-yl]-spiro[1,2-dihydro-indole-3,1′-cyclopropane]-6-yl]-methanone]
  IC50: 0.1 to 1 µM

## CS(=O)(=O)c1ccccc1-c1cnc(N2CC3(CC3)c3ccc(C(=O)N4CCOCC4)cc32)nc1 [Compound 28, [1-[5-(2-Methylsulfonyl-phenyl)-pyrimidin-2-yl]-spiro[1,2-dihydro-indole-3,1′-cyclopropane]-6-yl]-morpholin-4-yl-methanone]
  IC50: 0.1 to 1 µM

## CN(C)CCN(C)C(=O)c1ccc2c(c1)N(c1ncc(-c3ccccc3F)cn1)CC21CC1 [Compound 99, N-[2-(Dimethylamino)ethyl]-1-[5-(2-fluorophenyl)-pyrimidin-2-yl]-N-methyl-spiro[1,2-dihydro-indole-3,1′-cyclopropane]-6-carboxylic acid amide]
  IC50: < 0.1 µM

## Cn1nc(C(F)(F)F)cc1-c1cnc(N2CC3(CC3)c3ccc(C(=O)N4CCOCC4)cc32)nc1 [Compound 134, [1-[5-[2-Methyl-5-(trifluoromethyl)-2H-pyrazol-3-yl]-pyrimidin-2-yl]-spiro[1,2-dihydro-indole-3,1′-cyclopropane]-6-yl]-morpholin-4-yl-methanone]
  IC50: 0.1 to 1 µM

## N#Cc1ccc(F)c(-c2cnc(N3CC4(CC4)c4ccc(C(=O)N5CC[C@@H](N)C5)cc43)nc2)c1 [Compound 123, 3-[2-[6-[(3R)-3-Amino-pyrrolidine-1-carbonyl]-spiro[1,2-dihydro-indole-3,1′-cyclopropane]-1-yl]-pyrimidin-5-yl]-4-fluoro-benzonitrile]
  IC50: < 0.1 µM

## NC(=O)c1ccccc1-c1cnc(N2CC3(CC3)c3ccc(C(=O)N4CCOCC4)cc32)nc1 [Compound 25, 2-[2-[6-(Morpholine-4-carbonyl)-spiro[1,2-dihydro-indole-3,1′-cyclopropane]-1-yl]-pyrimidin-5-yl]-benzamide]
  IC50: 0.1 to 1 µM

## [1-[5-(1-Fluorophenyl)-pyrimidin-2-yl]-spiro[1,2-dihydro-indole-3,1′-cyclopropane]-6-yl]-pyrrolidin-1-yl-methanone [Compound 3]
  IC50: < 0.1 µM

## O=C1CN(C(=O)c2ccc3c(c2)N(c2ncc(-c4cc(F)cc(F)c4)cn2)CC32CC2)CCN1 [Compound 128, 4-[1-[5-(3,5-Difluoro-phenyl)-pyrimidin-2-yl]-spiro[1,2-dihydro-indole-3,1′-cyclopropane]-6-carbonyl]-piperazin-2-one]
  IC50: < 0.1 µM

## 4-[1-(5-Phenyl-pyrimidin-2-yl)-spiro[1,2-dihydro-indole-3,1′-cyclopropane]-6-carbonyl]-piperazine-2,6-dione [Compound 202]
  IC50: 0.1 to 1 µM

## N#Cc1ccc(F)c(-c2cnc(N3CC4(CC4)c4ccc(C(=O)N5CCNCC5)cc43)nc2)c1 [Compound 109, 4-Fluoro-3-[2-[6-(piperazine-1-carbonyl)-spiro[1,2-dihydro-indole-3,1′-cyclopropane]-1-yl]-pyrimidin-5-yl]-benzonitrile]
  IC50: < 0.1 µM

## O=C(c1ccc2c(c1)N(c1ncc(Oc3ccccc3F)cn1)CC21CC1)N1CCOCC1 [Compound 179, [1-[5-(2-Fluoro-phenoxy)-pyrimidin-2-yl]-spiro[1,2-dihydro-indole-3,1′-cyclopropane]-6-yl]-morpholin-4-yl-methanone]
  IC50: 0.1 to 1 µM

## Cc1cc(-c2cnc(N3CC4(CC4)c4ccc(C(=O)N5CCOCC5)cc43)nc2)ccn1 [Compound 159, [1-[5-(2-Methyl-pyridin-4-yl)-pyrimidin-2-yl]-spiro[1,2-dihydro-indole-3,1′-cyclopropane]-6-yl]-morpholin-4-yl-methanone]
  IC50: < 0.1 µM

## COc1ccc(C(N)=O)c(-c2cnc(N3CC4(CC4)c4ccc(C(=O)N5CCNCC5)cc43)nc2)c1 [Compound 122, 4-Methoxy-2-[2-[6-(piperazine-1-carbonyl)-spiro[1,2-dihydro-indole-3,1′-cyclopropane]-1-yl]-pyrimidin-5-yl]-benzamide]
  IC50: 1 to 10 µM

## NC(=O)C1CCN(C(=O)c2ccc3c(c2)N(c2ncc(-c4ccccc4F)cn2)CC32CC2)CC1 [Compound 216, 1-[1-[5-(2-Fluorophenyl)-pyrimidin-2-yl]-spiro[1,2-dihydro-indole-3,1′-cyclopropane]-6-carbonyl]-piperidine-4-carboxylic acid amide]
  IC50: 1 to 10 µM

## COC1CCN(C(=O)c2ccc3c(c2)N(c2ncc(-c4ccccc4F)cn2)CC32CC2)CC1 [Compound 100, [1-[5-(2-Fluorophenyl)-pyrimidin-2-yl]-spiro[1,2-dihydro-indole-3,1′-cyclopropane]-6-yl]-(4-methoxy-piperidin-1-yl)-methanone]
  IC50: 0.1 to 1 µM

## O=C(c1ccc2c(c1)N(c1ncc(-c3ccccc3F)cn1)CC21CC1)N1CCS(=O)(=O)CC1 [Compound 106, (1,1-Dioxo-[1,4]thiazinan-4-yl)-[1-[5-(2-fluorophenyl)-pyrimidin-2-yl]-spiro[1,2-dihydro-indole-3,1′-cyclopropane]-6-yl]-methanone]
  IC50: 0.1 to 1 µM

## CN(C)C(=O)c1ccc2c(c1)N(c1ncc(-c3ccccc3)cn1)CC21CC1 [Compound 124, N,N-Dimethyl-1-(5-phenyl-pyrimidin-2-yl)-spiro[1,2-dihydro-indole-3,1′-cyclopropane]-6-carboxylic acid amide]
  IC50: < 0.1 µM

## Cc1ncccc1-c1cnc(N2CC3(CC3)c3ccc(C(=O)N4CCOCC4)cc32)nc1 [Compound 167, [1-[5-(2-Methyl-pyridin-3-yl)-pyrimidin-2-yl]-spiro[1,2-dihydro-indole-3,1′-cyclopropane]-6-yl]-morpholin-4-yl-methanone]
  IC50: < 0.1 µM

## O=C(c1ccc2c(c1)N(c1ncc(-c3c(F)cncc3F)cn1)CC21CC1)N1CCOCC1 [Compound 166, [1-[5-(3,5-Difluoro-pyridin-4-yl)-pyrimidin-2-yl]-spiro[1,2-dihydro-indole-3,1′-cyclopropane]-6-yl]-morpholin-4-yl-methanone]
  IC50: < 0.1 µM

## O=C(c1ccc2c(c1)N(c1ncc(-c3ccc(F)cc3F)cn1)CC21CC1)N1CCNCC1 [Compound 71, [1-[5-(2,4-Difluoro-phenyl)-pyrimidin-2-yl]-spiro[1,2-dihydro-indole-3,1′-cyclopropane]-6-yl]-piperazin-1-yl-methanone]
  IC50: 0.1 to 1 µM

## O=C(c1ccc2c(c1)N(c1ncc(-c3ccccc3F)cn1)CC21CC1)N1CCOCC1 [Compound 1, [1-[5-(2-Fluorophenyl)-pyrimidin-2-yl]-spiro[1,2-dihydro-indole-3,1′-cyclopropane]-6-yl]-morpholin-4-yl-methanone]
  IC50: < 0.1 µM

## CS(=O)(=O)c1ccc(-c2cnc(N3CC4(CC4)c4ccc(C(=O)N5CCOCC5)cc43)nc2)c(F)c1 [Compound 29, [1-[5-(2-Fluoro-4-methylsulfonyl-phenyl)-pyrimidin-2-yl]-spiro[1,2-dihydro-indole-3,1′-cyclopropane]-6-yl]morpholin-4-yl-methanone]
  IC50: < 0.1 µM

## Cn1ccc(-c2cnc(N3CC4(CC4)c4ccc(C(=O)N5CCOCC5)cc43)nc2)c1 [Compound 136, [1-[5-(1-Methyl-1H-pyrrol-3-yl)-pyrimidin-2-yl]-spiro[1,2-dihydro-indole-3,1′-cyclopropane]-6-yl]-morpholin-4-yl-methanone]
  IC50: < 0.1 µM

## COc1ccsc1-c1cnc(N2CC3(CC3)c3ccc(C(=O)N4CCNC(=O)C4)cc32)nc1 [Compound 177, 4-[1-[5-(3-Methoxy-thiophen-2-yl)-pyrimidin-2-yl]-spiro[1,2-dihydro-indole-3,1′-cyclopropane]-6-carbonyl]-piperazin-2-one]
  IC50: < 0.1 µM

## O=C(c1ccc2c(c1)N(c1ncc(-c3ccccc3F)cn1)CC21CC1)N1CC2(COC2)C1 [Compound 64, [1-[5-(2-Fluorophenyl)-pyrimidin-2-yl]-spiro[1,2-dihydro-indole-3,1′-cyclopropane]-6-yl]-(2-oxa-6-azaspiro[3.3]heptan-6-yl)-methanone]
  IC50: 1 to 10 µM

## O=C(c1ccc2c(c1)N(c1ncc(-c3ccccc3F)cn1)CC21CC1)N1CCCCC12COC2 [Compound 80, [1-[5-(2-Fluorophenyl)-pyrimidin-2-yl]-spiro[1,2-dihydro-indole-3,1′-cyclopropane]-6-yl]-(2-oxa-5-azaspiro[3.5]nonan-5-yl)-methanone]
  IC50: 0.1 to 1 µM

## O=C(c1ccc2c(c1)N(c1ncc(-c3cccc(F)c3)cn1)CC21CC1)N1CCCC1 [Compound 130, [1-[5-(3-Fluorophenyl)-pyrimidin-2-yl]-spiro[1,2-dihydro-indole-3,1′-cyclopropane]-6-yl]-pyrrolidin-1-yl-methanone]
  IC50: < 0.1 µM

## O=C(c1cc2c(cn1)C1(CC1)CN2c1ncc(-c2ccccc2F)cn1)N1CCOCC1 [Compound 168, [1-[5-(2-Fluorophenyl)-pyrimidin-2-yl]-spiro[1,2-dihydro-pyrrolo[3,2-c]pyridine-3,1′-cyclopropane]-6-yl]-morpholin-4-yl-methanone]
  IC50: 0.1 to 1 µM
